Values quoted from earlier work in patent publication US20070014883A1, “Method for treating osteoarthritis” (priority 2005, published 2007).
“Also recorded” adds a separate entry of the source.

Columns and labels:
[1] = target: T1, MMP-2 (Homo sapiens, UniProt P08253); details: for Inhibitory activity against MMP-2, potency relative to captopril: more potent than captopril; for Inhibition of MMP-2: reference 24
T1 sequence (P08253 110-660): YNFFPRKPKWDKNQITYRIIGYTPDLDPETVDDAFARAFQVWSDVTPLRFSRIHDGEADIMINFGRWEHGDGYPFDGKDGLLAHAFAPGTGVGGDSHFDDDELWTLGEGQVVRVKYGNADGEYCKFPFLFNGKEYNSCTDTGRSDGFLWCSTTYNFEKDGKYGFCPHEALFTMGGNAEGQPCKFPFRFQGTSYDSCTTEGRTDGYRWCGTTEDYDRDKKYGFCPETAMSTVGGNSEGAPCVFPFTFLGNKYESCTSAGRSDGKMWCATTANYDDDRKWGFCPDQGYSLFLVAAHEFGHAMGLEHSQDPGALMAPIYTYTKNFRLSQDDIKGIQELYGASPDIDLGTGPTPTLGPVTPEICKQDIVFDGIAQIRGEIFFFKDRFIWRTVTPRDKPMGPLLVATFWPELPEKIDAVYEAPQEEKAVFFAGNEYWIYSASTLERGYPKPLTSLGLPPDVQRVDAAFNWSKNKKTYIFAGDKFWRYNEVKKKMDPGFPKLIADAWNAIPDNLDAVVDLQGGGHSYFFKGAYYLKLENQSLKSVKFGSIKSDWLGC

[2] = target: T2, MMP-1 (Homo sapiens, UniProt P03956); details: reference 24
T2 sequence (P03956 100-469): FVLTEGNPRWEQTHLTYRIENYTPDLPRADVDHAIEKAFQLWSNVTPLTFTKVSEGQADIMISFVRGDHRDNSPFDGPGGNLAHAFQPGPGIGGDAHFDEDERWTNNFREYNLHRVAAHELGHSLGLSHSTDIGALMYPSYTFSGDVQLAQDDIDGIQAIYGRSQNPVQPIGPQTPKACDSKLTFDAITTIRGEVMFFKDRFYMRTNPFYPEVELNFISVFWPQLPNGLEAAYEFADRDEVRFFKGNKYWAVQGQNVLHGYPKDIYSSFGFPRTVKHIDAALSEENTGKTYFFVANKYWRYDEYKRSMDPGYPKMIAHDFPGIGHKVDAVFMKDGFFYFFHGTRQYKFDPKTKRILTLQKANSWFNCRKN

[3] = target: MMP-9 (Homo sapiens, UniProt P14780); details: for Inhibitory activity against MMP-9, potency relative to captopril: more potent than captopril; for Inhibition of MMP-9: reference 24
MMP-9, sequence (P14780 94-707, species assumed): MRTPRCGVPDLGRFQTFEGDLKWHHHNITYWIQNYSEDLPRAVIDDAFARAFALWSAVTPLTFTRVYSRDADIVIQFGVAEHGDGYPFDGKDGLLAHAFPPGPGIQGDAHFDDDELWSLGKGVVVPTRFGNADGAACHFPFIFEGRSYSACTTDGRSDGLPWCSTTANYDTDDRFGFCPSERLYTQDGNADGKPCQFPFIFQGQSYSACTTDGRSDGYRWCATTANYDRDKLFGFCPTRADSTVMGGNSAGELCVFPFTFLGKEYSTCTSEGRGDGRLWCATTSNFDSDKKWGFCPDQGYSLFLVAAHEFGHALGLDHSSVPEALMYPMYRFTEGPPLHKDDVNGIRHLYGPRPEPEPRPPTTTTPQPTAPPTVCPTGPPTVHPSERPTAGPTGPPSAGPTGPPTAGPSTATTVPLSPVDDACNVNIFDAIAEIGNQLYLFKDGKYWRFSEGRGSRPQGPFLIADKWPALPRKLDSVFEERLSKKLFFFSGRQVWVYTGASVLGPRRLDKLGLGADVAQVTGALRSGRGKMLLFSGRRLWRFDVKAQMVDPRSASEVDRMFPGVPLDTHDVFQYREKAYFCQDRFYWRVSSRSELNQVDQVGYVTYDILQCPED

Compound	Inhibitory activity against MMP-2, potency relative to captopril [1] [fold]	Inhibition of MMP-2 [1]	Inhibition of MMP-1 [2]	Inhibitory activity against MMP-9, potency relative to captopril [3] [fold]	Inhibition of MMP-9 [3]
O=C1CCC(Cc2ccc(O)c(O)c2)O1 (stereo not shown) [M1, δ-(3,4-dihydroxy-phenyl)-γ-valerolactone]	100	strong inhibitory activity; also recorded: more potent than the parent molecules	strong inhibitory activity; also recorded: more potent than the parent molecules	100	strong inhibitory activity; also recorded: more potent than the parent molecules
COc1cc(CC2CCC(=O)O2)ccc1O (stereo not shown) [M2, δ-(3-methoxy-4-hydroxyphenyl)-γ-valerolactone]	100	strong inhibitory activity; also recorded: more potent than the parent molecules	strong inhibitory activity; also recorded: more potent than the parent molecules	100	strong inhibitory activity; also recorded: more potent than the parent molecules
